Each structure is given as a SMILES string.

Usually melting point stands for the temperature of the solid-liquid transition.

Series [1] concerns pentagastrin-stimulated acid secretion of the perfused rat stomach. Briefly: Testing of the secretion-inhibiting action on the perfused rat stomach. The conditions noted are these: dose 1 μmol/kg i.d. (intraduodenal), perfused stomach of anesthetized female CD rat, in vivo. The text has this: In Table A which follows, the influence of the compounds according to the invention on the pentagastrin-stimulated acid secretion of the perfused rat stomach after intraduodenal administration in vivo is shown.
The abdomen of anesthetized rats (CD rat, rat, female, 200-250 g; 1.5 g/kg l.m. urethane) was opened after trachetomy by a median upper abdominal incision and a PVC catheter was fixed transorally in the esophagus and another via the pylorus such that the ends of the tubes just projected into the gastric lumen. The catheter leading from the pylorus led outward into the right abdominal wall through a side opening.
After thorough rinsing (about 50-100 ml), warm (37° C.) physiological NaCl solution was continuously passed through the stomach (0.5 ml/min, pH 6.8-6.9; Braun-Unita 1). The pH (pH meter 632, glass electrode EA 147; φ=5 mm, Metrohm) and, by titration with a freshly prepared 0.01N NaOH solution to pH 7 (Dosimat 665 Metrohm), the secreted HCl were determined in the effluent in each case collected at an interval of 15 minutes.
The gastric secretion was stimulated by continuous infusion of 1 μg/kg (=1.65 ml/h) of i.v. pentagastrin (left femoral vein) about 30 min after the end of the operation (i.e. after determination of 2 preliminary fractions). The substances to be tested were administered intraduodenally in a 2.5 ml/kg liquid volume 60 min after the start of the continuous pentagastrin infusion.
The body temperature of the animals was kept at a constant 37.9-38° C. by infrared irradiation and heat pads (automatic, stepless control by means of a rectal temperature sensor).

With `Cc1nc2c3c(c(C(N)=O)cc2n1C)CCC(c1ccccc1)N3` (centres unmarked) [Example 28, 2,3-Dimethyl-8-phenyl-6,7,8,9-tetrahydro-3H-imidazo[4,5-h]quinoline-5-carboxylic Acid Amide], the melting point is 311 to 319 °C. In the case of `Cc1nc2c3c(c(C(=O)N4CCC4)cc2n1C)CCC(c1ccccc1)O3` (centres unmarked) [Example 18, 1-Azetidin-1-yl-1-(2,3-dimethyl-8-phenyl-3,6,7,8-tetrahydro-chromeno[7,8-d]imidazol-5-yl)-methanone], in series [1], the “Inhibition of acid secretion” value is over 50%. `Cc1nc2c3c(c(C(=O)NN4CC4)cc2n1C)CCC(c1ccccc1)N3` (centres unmarked) gave a melting point of 192 to 193 °C. Still for that read-out and setting: for `CCCNC(=O)c1cc2c(nc(C)n2C)c2c1CCC(c1ccccc1)O2` (centres unmarked) [Example 19, 2,3Dimethyl-8-phenyl-3,6,7,8-tetrahydro-chromeno[7,8-d]imidazole-5-carboxylic Acid Propyl-amide] the value was 273 °C. With `Cc1nc2c3c(c(C(=O)N(C)C)cc2n1C)CCC(c1ccccc1)O3` (centres unmarked) [Example 1, 2,3-Dimethyl-phenyl-3,6,7,8-tetrahydro-chromeno[7,8-a]imidazole-5-carboxylic Acid Dimethylamide], the “Inhibition of acid secretion” value in series [1] was over 50%.

`COCn1c(C)nc2c3c(c(C(=O)N(C)C)cc21)CCC(c1ccccc1)O3` (centres unmarked) [Example 22, 3Methoxymethyl-2-methyl-8-phenyl-3,6,7,8-tetrahydro-chromeno[7,8-d]imidazole-5-carboxylic Acid Dimethylamide] had a melting point of 213 to 215 °C. The same measure, in the same setting: the result for `Cc1nc2c3c(c(C(=O)N4CCOCC4)cc2n1C)CCC(c1ccccc1)O3` (centres unmarked) [Example 7, 1-(2,3-Dimethyl-8-phenyl-3,6,7,8-tetrahydro-chromeno[7,8-d]imidazol-5-yl)-1-morpholin-4-yl-methanone] reads 291 to 293 °C; that for `COCCOCc1cc2c(nc(C)n2C)c2c1CCC(c1ccccc1)O2.O=C(O)C(=O)O` (centres unmarked) [Example 12, 5-(2-Methoxy-ethoxymethyl)-2,3-dimethyl-8-phenyl-3,6,7,8-tetrahydro-chromeno[7,8-d]-imidazole Oxalic Acid], 131 to 133 °C; that for `Cc1nc2c3c(c(CO)cc2n1C)CCC(c1ccccc1)N3` (centres unmarked) [Example 31, 5-Hydroxymethyl-2,3-dimethyl-8-phenyl-6,7,8,9tetrahydro-3H-imidazo[4,5-h]quinoline], 253 to 254 °C.

`Cc1nc2c3c(c(C(=O)N(C)C)cc2n1C)CCC(c1ccccc1)N3` (centres unmarked) [Example 2, 2,3-Dimethyl-8-phenyl-6,7,8,9-tetrahydro-3H-imidazo[4,5-h]quinoline-5-carboxylic Acid Dimethylamide]: the melting point fell in the range of 167 to 170 °C. Also, the “Inhibition of acid secretion” value in series [1] was over 50%. `CN(C)C(=O)c1cc2c(nc(C3CC3)n2C)c2c1CCC(c1ccccc1)O2` (centres unmarked) [Example 10, 2-Cyclopropyl-3-methyl-8-phenyl-3,6,7,8-tetrahydro-chromeno[7,8-d]imidazole-5-carboxylic Acid Dimethylamide]: the melting point was 176 to 179 °C. In addition, the “Inhibition of acid secretion” value in series [1] was over 50%. `Cc1nc2c3c(c(C(=O)N4CC4)cc2n1C)CCC(c1ccccc1)O3` (centres unmarked) [Example 13, 1-Aziridin-1-yl-(2,3-dimethyl-8-phenyl-3,6,7,8-tetrahydro-chromeno[7,8-d]imidazol-5-yl)-methanone] returned a melting point of 201 to 204 °C. Regarding `CNC(=O)c1cc2c(nc(C)n2C)c2c1CCC(c1ccccc1)N2` (centres unmarked) [Example 29, 2,3-Dimethyl-8-phenyl-6,7,8,9-tetrahydro-3H-imidazo[4,5-h]quinoline-5-carboxylic Acid Methylamide], the melting point stood at 259 °C. For the same compound, the “Inhibition of acid secretion” value in series [1] is recorded as over 50%. In turn, `Cc1nc2c3c(c(C(=O)NCCO)cc2n1C)CCC(c1ccccc1)O3` (centres unmarked) [Example 5, 2,3 Dimethyl-8-phenyl-3,6,7,8-tetrahydro-chromeno[7,8-d]imidazole-5-carboxylic Acid (2-Hydroxy-ethyl)-amide] showed a melting point of 228 to 229 °C. The same measure, in the same setting: the result for `Cc1nc2c3c(c(C(N)=O)cc2n1C)CCC(c1ccccc1)O3` (centres unmarked) [Example 3, 2,3-Dimethyl-8-phenyl-3,6,7,8tetrahydro-chromeno[7,8-d]imidazole-5-carboxylic Acid Amide] reads 264 to 267 °C; that for `Cc1nc2c3c(c(CO)cc2n1C)CCC(c1ccccc1)O3` (centres unmarked) [Example 17, (2,3-Dimethyl-8-phenyl-3,6,7,8-tetrahydro-chromeno[7,8-d]imidazol-5-yl)methanol], 279 to 281 °C.

Turning to `CCOC(=O)c1cc2c(nc(C)n2C)c2c1CCC(c1ccccc1)N2` (centres unmarked) [Example 25, Ethyl 2,3-dimethyl-8-phenyl-6,7,8,9-tetrahydro-3H-imidazo[4,5-h]quinoline-5-carboxylate], the melting point fell in the range of 185 to 186 °C. Still for that read-out and setting: for `Cc1nc2c3c(c(C(=O)NCC(O)CO)cc2n1C)CCC(c1ccccc1)O3` (centres unmarked) [Example 21, 2,3-Dimethyl-8-phenyl-3,6,7,8tetrahydro-chromeno[7,8-d]imidazole-5-carboxylic Acid (2,3-Dihydroxy-propyl)amide] the value was 268 to 270 °C; for `COCCNC(=O)c1cc2c(nc(C)n2C)c2c1CCC(c1ccccc1)O2` (centres unmarked) [Example 6, 2,3-Dimethyl-8-phenyl-3,6,7,8-tetrahydro-chromeno[7,8-d]imidazole-5-carboxylic Acid (2-Methoxy-ethyl)amide], 254 to 256 °C.

`CCOC(=O)c1cc2c(nc(C)n2C)c2c1CCC(c1ccccc1)O2` (centres unmarked) [Example 15, 2,3-Dimethyl-8-phenyl-3,6,7,8-tetrahydro-chromeno[7,8-d]imidazole-5-carboxylic Acid Ethyl Ester] registered a melting point of 172 to 173 °C. On to `COCc1cc2c(nc(C)n2C)c2c1CCC(c1ccccc1)O2.O=C(O)C(=O)O` (centres unmarked) [Example 11, 5-Methoxymethyl-2,3-dimethyl-8-phenyl-3,6,7,8-tetrahydro-chromeno[7,8-d]imidazole Oxalic Acid], for which the melting point lay within 204 to 205 °C.

On to `CNC(=O)c1cc2c(nc(C)n2C)c2c1CC[C@@H](c1ccccc1)N2` [32 (8S), (8S)-2,3-dimethyl-8-phenyl-6,7,8,9-tetrahydro-3H-imidazo[4,5-h]quinoline-5-carboxylic acid methylamide], for which the “Inhibition of acid secretion” value in series [1] was over 50%. On to `Cc1nc2c3c(c(C(=O)O)cc2n1C)CCC(c1ccccc1)N3` (centres unmarked) [Example 26, 2,3-Dimethyl-8-phenyl-6,7,8,9-tetrahydro-3H-imidazo[4,5-h]quinoline-5-carboxylic Acid], for which the melting point lay within 325 to 326 °C. In turn, `CC(C)c1nc2c3c(c(C(=O)N(C)C)cc2n1C)CCC(c1ccccc1)O3` (centres unmarked) [Example 9, 2-Isopropyl-3-methyl-8-phenyl-3,6,7,8-tetrahydro-chromeno[7,8-d]imidazole-5-carboxylic Acid Dimethylamide] registered a melting point of 179 to 180 °C. `CCc1nc2c3c(c(C(=O)N(C)C)c(-c4ccccc4)c2n1C)CCCO3` [Example 24, 2-Ethyl-3-methyl-4-phenyl-3,6,7,8-tetrahydro-chromeno[7,8-d]imidazole-5-carboxylic Acid Dimethylamide] returned a melting point of 195 to 197 °C. The same measure, in the same setting: for `Cc1nc2c3c(ccc2n1C)CCC(c1ccccc1)O3` (centres unmarked) [Example 36, 2,3-Dimethyl-8-phenyl-3,6,7,8-tetrahydro-chromeno[7,8-d]imidazole] the value was 161 to 164 °C. Turning to `CC(=O)N(C)c1cc2c(nc(C)n2C)c2c1CCC(c1ccccc1)O2` (centres unmarked) [Example 23, N-(2,3-Dimethyl-8-phenyl-3,6,7,8-tetrahydro-chromeno[7,8-d]imidazol-5-yl)-N-methyl-acetamide], the melting point lay in the range of 214 to 216 °C. As to `Cc1nc2c3c(c(C(=O)N(C)C)cc2n1C)CC[C@@H](c1ccccc1)O3` [33 (8S), (8S)-2,3-Dimethyl-8-phenyl-3,6,7,8-tetrahydro-chromeno[7,8-d]imidazole-5-carboxylic Acid Dimethylamide], the “Inhibition of acid secretion” value in series [1] is recorded as over 50%. The compound `Cc1nc2c3c(c(C(=O)O)cc2n1C)CCC(c1ccccc1)O3` (centres unmarked) [Example 16, 2,3-Dimethyl-8-phenyl-3,6,7,8-tetrahydro-chromeno[7,8-d]imidazole-5-carboxylic Acid] returned a melting point of 323 to 326 °C. On the same count and under the same terms, for `CN(C)C(=O)c1cc2c(nc(C(F)(F)F)n2C)c2c1CCC(c1ccccc1)O2` (centres unmarked) [Example 14, 3-Methyl-8-phenyl-2-trifluoromethyl-3,6,7,8-tetrahydro-chromeno[7,8-d]imidazole-5-carboxylic Acid Dimethylamide] the value was 223 to 225 °C. On to `Cc1nc2c3c(c(C(=O)NC4CC4)cc2n1C)CCC(c1ccccc1)O3` (centres unmarked) [Example 35, 2,3-Dimethyl-8-phenyl-3,6,7,8-tetrahydro-chromeno[7,8-d]imidazole-5-carboxylic Acid Cyclopropylamide], for which the melting point fell in the range of 312 to 313 °C. For the compound `CNC(=O)c1cc2c(nc(C)n2C)c2c1CCC(c1ccccc1)O2` (centres unmarked) [Example 4, 2,3-Dimethyl-8-phenyl-4,6,7,8-tetrahydro-chromeno[7,8-d] imidazole-5-carboxylic Acid Methylamide], in series [1], the “Inhibition of acid secretion” value is listed as over 50%.
